These results are taken from US7910624B1, “Compositions for the treatment of blood disorders” (The Trustees of Boston University, priority 1995, dated 2011).

The subject of data set [1] is erythroblast culture from peripheral blood of patients with sickle cell anemia. Nature of the data set: Induction of fetal globin in erythroblasts by steel factor. The class given is cell-based, human. As to the method: Peripheral blood was obtained from patients with sickle cell anemia. Mononuclear cells were isolated on Ficoll-Hypaque gradients. One culture was treated with 100 ng/ml steel factor for 13 days and compared with an untreated control. […] A second culture was incubated overnight with an identical dose of steel factor Plus ^3H-leucine. Amounts of labeled globin proteins synthesized in untreated (FIG. 5A) and steel factor treated (FIG. 5B) cells were determined by autoradiography and quantitated (scanned) by laser densitometry. […] The increase observed included both G-γ, and A-γ globin proteins.

For another data set, the system named is anemic juvenile baboons. Nature of the data set: In vivo reticulocyte proliferation and globin expression in phlebotomized anemic baboons. On the set-up: species or system baboon. Conditions: for fetal reticulocytes on treatment: 4 days, baseline 4%. The method, then:
Experiments were performed to determine if administration of the chemical compositions could induce fetal globin gene expression in an in vivo model similar to humans (S. P. Perrin et al., Brit. J. Haematol. 88:555-61, 1994). Briefly, chemicals were prepared as sterile pharmaceutical solutions in pH adjusted sterile water. A variety of chemical compositions were administered sequentially to some baboons. After administration of one compound, a wash-out period with no compound administration was maintained until reticulocytes returned to base line prior to administration of the next compound. This was done, at least partly, to compare the magnitude of response which occurred within the same individual animal to different compounds.
Briefly, juvenile female baboons (2 years old) were catheterized with arterial and venous catheters and phlebotomized gradually every day to maintain a moderate anemia of 7.0 to 7.5 grams hemoglobin/dl. Fetal reticulocytes, the newly produced red blood cells containing fetal globin, were assayed using a monoclonal antibody against fetal globin (HbF) as described by G. Dover et al. (Blood 67:735-38, 1986). Briefly, blood was stained with two antibodies, one specific for reticulocytes and another against fetal globin protein. The amount of antibody bound cells was determined by FACS analysis. Globin chain synthesis was assayed as described by J. B. Clegg et al. (J. Mol. Biol. 19:91-108, 1966). Briefly, reticulocytes were radio-labeled with ^3H-leucine which was incorporated in equal proportions into actively synthesized globin chains. After incubation in leucine-free media, cells were washed, and globin proteins were separated and purified by column chromatography. Radioactivity incorporated into each peak is compared and the ratios of gamma to gamma plus beta globin calculated. Each animal served as its own control with baseline monitoring assays performed for 4-6 weeks before any drug was administered. Phlebotomy was continued daily, so that peripheral HbF levels in the animals were not considered to be accurate over the short treatment time-frames and were not monitored. Safety monitoring was performed by frequent physical examinations, quantitation of food eaten, activity and frequent chemistry and hematology monitoring. Complete blood counts were assayed before, during and after treatment. Results presented were not adjusted to account for the daily phlebotomy.

The test system of data set [2] is erythroid cells (peripheral blood cells). Nature of the data set: Erythroid cell viability by Calcein-AM fluorescent staining (FIG. 2). It counts as cell-based. The conditions noted are these: 0.5 mM. The method, then: Compositions were tested for the ability to directly stimulate erythroid cell growth. Cell growth stimulation is a useful property for an agent to be used to treat anemias and distinguishes such agents from the cytotoxic drugs currently being tested for treatment of hemoglobinopathies. Cell viability analyses were performed using fluorescent staining to detect living cells. Cells were in log phase of growth in 6-well dishes when used in proliferation assays. For enumeration of living cells, wells were washed once with medium to remove nonadherent or dead cells. Remaining live cells were labeled with 2 μM 2′,7′-bis-(carboxyethyl)-5-(and 6)-carboxy-fluorescein acetoxy-methyl ester (Calcein-AM) (Molecular Probes; Eugene, Oreg.) for 20 minutes at 37° C. and washed once. Fluorescence intensity of live cells was read on a CytoFluor 2300 Fluorescence Plate Scanner (Millipore; Bedford, Mass.) at excitation and emission wavelengths of 485 and 530 nm, respectively. The fluorescence intensity of a well was proportional to the number of living cells in the well. Background fluorescence was measured separately for each plate and subtracted from all readings. Each experiment was performed in triplicate or quadruplicate. The standard deviation (SD) of repetitive readings was less than 30% of the mean. Results are depicted in FIG. 2.

The subject of data set [3] is system A transport in K562 cells and nucleated erythroblasts from fetal liver. Nature of the data set: System A (neutral amino acid) transport, 3H-MAIB uptake. The class given is cell-based, human. The conditions noted are these: 1 hour incubation; FIG. 12. The method, then: Inhibition of nutrient uptake is undesirable for treatment of anemias. Methyl aminoisobutyric acid (MAIB) labeled with tritium (^3H) is normally taken up by system A amino acid transport. Cold (unlabeled) compounds were added to cultures containing ^3H-MAIB and incubated for 1 hour. Cells were harvested and the amount of ^3H taken up by cells was quantitated by scintillation counting.

For another data set, the system named is human erythroid cells. Nature of the data set: DNA fragmentation by flow cytometry (propidium iodide). It counts as cell-based. The conditions noted are these: for effect in DNA fragmentation assays: summary statement. As to the method:
(§1) Such activities might limit their utility for treatment of anemias such as occur in thalassemia, but alternatively would be useful for anticancer effects. To determine cell viability, human erythroid cells were cultured in the presence and absence of these compounds for 4 days and the amount of DNA fragmentation which occurred was measured.
Flow cytometric determination of DNA profiles and DNA fragmentation were determined. Cytometric analysis was performed with a FACScan (Becton Dickenson Instruments; Columbia, Md.). The data analysis and display were performed using the Cell-Fit software program. Approximately 0.5×10^6 cells were washed twice with PBS and resuspended in 1 ml of 1% sodium citrate, 0.1% Triton X-100 and […] of propidium iodide/ml. Resulting permeabilized cells were kept in the dark at 4° C. overnight before DNA profile or DNA fragmentation analysis (Table 4).

Data set [4] relates to Human mammary carcinoma cells (MCF-7). Nature of the data set: Human mammary carcinoma cell viability by FACS. The conditions noted are these: 1.0 mM; 4 days. It counts as cell-based. As to the method:
Human mammary carcinoma cells (MCF-7) were cultured alone (controls) and with arginine butyrate or isobutyramide for 4 days. Viability was assayed by FACS after incubation with a fluorescent dye taken up by viable cells (FIG. 6). Growth was decreased by 50% with isobutyramide at 1.0 mM, about 60% with arginine butyrate at 0.5 mM, and greater than 90% with arginine butyrate at 1.0 mM.
(A flow cytometer gives signals particle by particle.)

The test system of data set [5] is patient with thalassemia intermedia. Nature of the data set: Isobutyramide treatment of a patient with thalassemia, blood counts and hemoglobin. It counts as in vivo, human. Conditions: 50 mg/kg 3 days/week. As to the method: This patient received isobutyramide at 50 mg/kg for 3 days/week over the course of the study.
In data set [6] the test system is erythroid progenitor cells cultured from human cord blood. Nature of the data set: Fetal globin expression in human cell cultures (3H-leucine labelled globin chains, densitometry). The class given is cell-based. As to the method:
Compositions were tested for activity in inducing fetal globin expression and protein production in erythroid progenitor cells cultured from human cord blood and analyzed as described by S. P. Perrine et al. (Blood 74: 454-60, 1989). Briefly, mononuclear cells were cultured in IMDM with 30% fetal calf serum and 2 units erythropoietin per ml to induce erythroid differentiation. Colonies were harvested on day 12-13, incubated with radio-labelled (^3H) leucine, and further incubated in leucine-free media, still in the presence of compounds, overnight. Globin composition in the erythroid cells was analyzed by laser densitometry of electrophoretically separated globin chains stained with Coomassie blue, and by autoradiography. Treated cells were incubated for 12-13 days (Table 2, Experiments A and B) or overnight (Table 2, Experiment C) in the presence of the indicated compounds and compared to untreated control cells cultured from the same human subject.

The subject of data set [7] is human erythroid cell line K562. Nature of the data set: Cell viability / growth of K562 by Calcein-AM fluorescence. The conditions noted are these: 0.5 mM; over 3 days. The class given is cell-based. As to the method:
as §1
Cell viability analyses were performed using fluorescent staining to detect living cells. Cells were in log phase of growth in 6-well dishes when used in proliferation assays. For enumeration of living cells, wells were washed once with medium to remove nonadherent or dead cells. Remaining live cells were labeled with Calcein-AM for 20 minutes at 37° C. and washed once. Fluorescence intensity of adherent live cells was read on a CytoFluor 2300 Fluorescence Plate Scanner (Millipore; Bedford, Mass.) at excitation and emission wavelengths of 485 and 530 nm, respectively. The fluorescence intensity of a well was proportional to the number of living cells in the well. Background fluorescence was measured separately for each plate and subtracted from all readings. Each experiment was performed in triplicate or quadruplicate. The standard deviation (SD) of repetitive readings was less than 30% of the mean.
At higher concentrations, still easily achievable in vivo, arginine butyrate (0.5 mM) and dihydrocinnamic acid (greater than 0.5 mM) inhibited growth of this tumor cell line by approximately 50%. Therefore, these compounds are also useful as anti-tumor agents.

For the next data set, the system named is K562 cells. Nature of the data set: Dose response, total and viable cells by trypan blue exclusion (FIG. 3). It counts as cell-based, human. The conditions noted are these: up to 2.0 mM, day 4. The method, then: FIG. 3 A FIG. 3E Cell viability as determined by the comparative numbers of total and viable K562 cells in the presence of increasing concentrations of (A) phenoxyacetic acid, (B) dihydrocinnamic acid, (C) butyric acid ethyl ester, (D) arginine butyrate, and (E) isobutyramide.
Dose response curves at dosages of up to 2.0 mM were also determined for phenoxyacetic acid (PAA; FIG. 3A), dihydrocinnamic acid (DHC; FIG. 3B), butyric acid ethyl ester (BAEE; FIG. 3C), arginine butyrate (AB; FIG. 3D) and isobutyramide (IBT; FIG. 3E). Cells were counted on day 4 of treatment and viable cells identified by trypan blue exclusion.

The subject of data set [8] is Human erythroleukemia cells. Nature of the data set: Fetal globin mRNA in erythroleukemia cells by primer extension. It counts as cell-based. Conditions: 1.0 mM; 4 days. The method, then: Compounds were tested for increased expression of the human globin genes in human erythroid cells. In addition, as the cell line being tested is a tumor cell line, the assay determines if differentiation, a growth inhibitory effect on cancer cells, is induced by the compounds tested. Human erythroleukemia cells were cultured in RPMI media with 10% fetal calf serum alone or with treatment with various compounds for 4 days. Globin mRNA was quantitated by primer extension analysis. Fetal globin mRNA was compared to the amount of fetal globin mRNA produced in untreated cells during the same culture period. The quantitation was expressed as a percent of alpha globin mRNA which was constant. Results are expressed proportional to α-globin mRNA (Table 3).

The mark [9] stands for this setting: 25 and 100 μg/kg subcutaneously.
The mark [10] stands for this setting: 1.0 mM to 2.0 mM, untreated cells 26%.
Where [11] appears, read: 2.0 mM, 4 days, controls 26%, 22%.

On to “steel factor: hematopoietic factor, also referred to as kit ligand, mast cell growth factor and stem cell factor”, for which, in [1] (100 ng/ml overnight plus 3H-leucine, increased from 17.6%), the “gamma globin expression after treatment” value is given as 43.3%. Also, in [1] (100 ng/ml, 13 days, increased from 14%), the “gamma globin expression in BFU-e cells after treatment” value is given as 23.3%. For the same molecule, the “Gamma globin expression, mean increase” value in data set [1] (100 ng/ml, 13 days, versus untreated control) came out at 16.1%. In addition, in the data set with anemic juvenile baboons (setting [9]), the “rise in numbers of newly-formed blood cells producing fetal globin” value is given as 300-500%, the “rise of fetal globin chain protein” value is on record as 3 fold and the “total increase of gamma globin expression in the bone marrow” value came out at 9 fold. Besides, the “fetal globin chain protein after treatment” value with anemic juvenile baboons (25 and 100 μg/kg subcutaneously, undetectable before treatment) is on record as “about 3 % of total non-alpha globin”. Further, the “fetal reticulocytes on treatment” value in the data set on anemic juvenile baboons (first dose regimen: 25 μg/kg subcutaneously once daily) is recorded as 15%. Also, the “fetal reticulocytes on treatment” value in the data set on anemic juvenile baboons (second dose regimen: 100 μg/kg subcutaneously) amounted to 12%.

Take `CC(C)C(N)=O` [IBT, isobutyramide]: in data set [2], the “erythroid cell growth and proliferation compared to untreated controls (FIG. 2)” value is “either had no effect or stimulated erythroid cell growth and proliferation”. Moreover, the “system A transport of amino acids (3H-MAIB uptake)” value in data set [3] is reported as “inhibited the neutral amino acid transport mechanism”. Also, the “Degraded DNA” value in the data set on human erythroid cells (setting [10]) is listed as 44%. In addition, the “Degraded DNA” value with human erythroid cells (setting [11]) was found to be 34%. For the same molecule, in the data set with human erythroid cells, the “effect in DNA fragmentation assays” value was “decrease cell viability”. Moreover, the “decrease of growth of MCF-7” value in data set [4] was found to be 50%. In data set [5] (four month study period), the “fetal globin (HbF)” value is listed as “lack of increased fetal globin”, the “rise of hematocrit (Hct)” value is recorded as 5.8%, the “rise of hemoglobin (Hgb)” value was 1.6 g/dL and the “rise of reticulocytes (Retics)” value is “about 50%”. The rise of total red blood cells (RBC) in data set [5] (four month study period) is approximately 1e+06 cells/µL. In addition, in [5] (throughout the study), the “Hemoglobin-A1 and hemoglobin-A2 levels” value is given as “approximately constant”. In data set [5] (Day 8), the Retics is on record as 2.5 ×10^6 cells. In addition, in [5] (Day 22), the HbF is recorded as 0.4 and the Retics is reported as 2.0 ×10^6 cells. In addition, in data set [5] (Day 29), the Hgb-A2 is reported as 7.0 and the Retics is listed as 2.0 ×10^6 cells. Besides, the HbF in data set [5] (Day 36) stood at 0.4. Also, the Retics in data set [5] (Day 43) was 2.0 ×10^6 cells. In [5] (Day 96, 50 mg/kg), the RBC is 7.3e+06 cells/µL.

Take `CCCC(=O)OCC` [BAEE, butyric acid ethyl ester]: the “erythroid cell growth and proliferation compared to untreated controls (FIG. 2)” value in [2] was “either had no effect or stimulated erythroid cell growth and proliferation”. Also, the “Gamma Increase” value is recorded as 13.0% in data set [6] (Exp. A, 0.1 mM, 12-13 days, above untreated cells); 8.5% in data set [6] (Exp. B, 0.2 mM, 12-13 days); 12.5% in data set [6] (Exp. C, 0.1 mM, overnight). The “Degraded DNA” value in the data set with human erythroid cells (setting [10]) and in the data set on human erythroid cells (setting [11]) was 13.8% each time. Besides, the “effect in DNA fragmentation assays” value with human erythroid cells is on record as “reduce DNA fragmentation”. The “growth of K562” value in data set [7] was “either did not inhibit, or slightly enhanced growth”. Further, the “proliferation (dose response, FIG. 3)” value in the data set on K562 cells was “did not significantly inhibit proliferation”. In addition, in the data set with anemic juvenile baboons (intravenous 3 days, 500 to 1,000 mg/kg per day), the “increase of fetal reticulocytes above basal levels” value was “over 1,100%”. In the data set with anemic juvenile baboons (intravenous 3 days, 500 to 1,000 mg/kg per day (FIG. 11)), the “increase of fetal reticulocytes” value is reported as 11.3 fold. For the same molecule, the “induction of fetal globin mRNA in human cells” value in data set [8] is on record as “significantly increased”.
